# Literature values in US20090318371A1 (priority 2006, published 2009).
# Key:
# [1] = Phase III clinical studies
# [2] = Ames, chromosomal aberration and micronuclei
# [3] = during the following 10 hours of topical administration
# [4] = clinical phase I
# [5] = topical application to mice for 21 months
# [6] = multiple topical administrations, equivalent to 10 mg/ml in water and isopropyl alcohol solution
# [7] = Ames test
# [8] = topical administration
# [9] = tested on: human polymorphonuclear leukocyte chemotactic and chemokinetic responses; settings: in vivo and in vitro
# [10] = clinical studies
compound,measurement,setting,value
CCOC(=O)c1ccc(C#Cc2ccc3c(c2)C(C)(C)CCS3)nc1 [Tazarotene],Adverse effects reported,[1],"burning sensation, skin scaling and dryness"
same,"Mutagenicity, clastogenic or chromosomal effects",[2],not mutagenic and has no clastogenic or chromosomal effects
same,"Absorption, share of the dose absorbed",[3],Less than 6.0%
same,"Sensitization, phototoxicity or photoallergicity",[4],"does not cause sensitization, phototoxicity or photoallergicity"
same,Carcinogenic effects,[5],non-carcinogenic effects
"CCC[C@@H]1C[C@@H](C(=O)N[C@@H]([C@H]2O[C@H](SC)[C@H](OP(=O)(O)O)[C@@H](O)[C@H]2O)[C@H](C)Cl)N(C)C1 [clindamycin phosphate, Clindamycin phosphate]",Share of the dosage recovered in urine as clindamycin,[6],less than 0.2%
O=C(OOC(=O)c1ccccc1)c1ccccc1 [Benzoyl peroxide],Mutagenicity,[7],not mutagenic
same,Activity against Propionibacterium acnes,Propionibacterium acnes,effective against Propionibacterium acnes
CCC[C@@H]1C[C@@H](C(=O)N[C@@H]([C@H]2O[C@H](SC)[C@H](O)[C@@H](O)[C@H]2O)[C@H](C)Cl)N(C)C1 [Clindamycin],Binding to plasma proteins,in vivo,Ninety percent or more
same,Share of administered clindamycin excreted intact in urine,urine,10%
COc1ccc(-c2ccc3cc(C(=O)O)ccc3c2)cc1C12CC3CC(CC(C3)C1)C2 [Adapalene],Presence of Adapalene compared to Tretinoin on the dermis,[8]; dermis,−37%
same,Presence of Adapalene compared to Tretinoin on the epidermis,[8]; epidermis,+51%
same,Presence of Adapalene compared to Tretinoin in receptor fluid,[8]; receptor fluid,−71%
same,Anti-inflammatory activity compared to other topical retinoids,[9],superior to other topical retinoids
same,Plasma levels,[10],no significant plasma levels were detected
